Assays:
Format in all cases: cell-based
KMS-11 = assay: MTT antiproliferative assay, KMS-11; conditions: Homo sapiens, 72 hours
Description: (§1) Cell viability was monitored by the MTT (3-(4,5-dimethylthiazol-2-yl)-2,5-diphenyltetrazolium bromide) assay. For the MTT assay, cells were suspended at 5 × 10^5 cells/ml, and 100 μl aliquots were dispended into 96-well microtiter plates and exposed to drugs as described using DMSO control. At the end of incubations, 10 μl of a stock solution of 5 mg/ml MTT (3-(4,5-dimethylthiazol-2-yl)-2,5-diphenyltetrazolium bromide), was added into each well, and the plates were incubated 4 hours at 37 °C. Formazan crystals were dissolved with 100 μl of 10% SDS/10 mM HCl solution overnight at 37 °C. Since MTT assays are affected by mitochondrial activity, and since OXPHOS is affected by VLX1570 (unpublished observation), we used the acid phosphatase method[49] to determine cell viability in some experiments. After washing twice with PBS, cells were lysed in 100 μl of 0.1 M sodium acetate, 0,1% Triton X-100, p-nitrophenylphosphate (Pierce Biotechnology Inc, Rockford, IL) and incubated for 90 min at 37 °C. At the end of the incubation, 10 μl NaOH was added to each well and A405 was determined.

RPMI8226 = assay: MTT antiproliferative assay, RPMI8226; conditions: Homo sapiens, RPMI-8226, 72 hours
Description: as §1

OPM-2 = assay: MTT antiproliferative assay, OPM-2; conditions: Homo sapiens, 72 hours
Description: as §1

OPM-2-BZ^R = assay: MTT antiproliferative assay, OPM-2-BZR; conditions: Homo sapiens, OPM-2-BZ^R (bortezomib resistant), 72 hours
Description: as §1

USP14 = USP14 (Homo sapiens, UniProt P54578); assay: Cellular thermal shift assay (CETSA) in OPM-2 cells; parameters: endogenous in cells; host or cells: OPM-2 multiple myeloma cells; conditions: 1 hour
USP14, sequence (P54578 whole entry): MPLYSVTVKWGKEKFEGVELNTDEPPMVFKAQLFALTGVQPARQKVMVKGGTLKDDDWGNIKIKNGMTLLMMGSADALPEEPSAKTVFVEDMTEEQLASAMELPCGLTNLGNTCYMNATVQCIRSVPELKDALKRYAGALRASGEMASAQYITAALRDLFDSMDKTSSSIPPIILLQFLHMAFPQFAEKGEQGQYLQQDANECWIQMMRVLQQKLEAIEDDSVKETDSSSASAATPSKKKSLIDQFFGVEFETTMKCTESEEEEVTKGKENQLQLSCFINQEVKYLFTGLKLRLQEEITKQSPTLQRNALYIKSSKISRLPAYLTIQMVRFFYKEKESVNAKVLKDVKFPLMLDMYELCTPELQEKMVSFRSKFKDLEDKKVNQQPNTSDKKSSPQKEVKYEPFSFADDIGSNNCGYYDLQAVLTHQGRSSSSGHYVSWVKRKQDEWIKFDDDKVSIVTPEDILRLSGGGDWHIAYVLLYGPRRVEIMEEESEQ
Description: For CETSA, the same amount of cells as one sample was treated with required condition and collected as described. Each sample was suspended in PBS supplemented with protease inhibitors after they were washed in PBS. And then these samples were heated at 51, 53, or 55 °C for 3 min. Immediately after heating, tubes were removed and incubated at room temperature for 3 min, and then snap-frozen in liquid nitrogen. Samples were freeze-thawed twice and centrifuged at 20,000 g for 20 min at +4 °C and supernatants were analysed by Western-blotting.

Row | SMILES | IC50 (KMS-11) [nM] | IC50 (RPMI8226) [nM] | IC50 (OPM-2) [nM] | IC50 (OPM-2-BZ^R) [nM] | thermostabilization of USP14 (USP14; 1 μM) | thermostabilization of USP14 (USP14; 5 μM)
1 | CC(C)C[C@H](NC(=O)[C@H](Cc1ccccc1)NC(=O)c1cnccn1)B(O)O [bortezomib] | 67 ± 3 | 84 ± 5 | 32 ± 1 | 204 ± 10 |  | 
2 | C=CC(=O)N1C/C(=C\c2ccc([N+](=O)[O-])cc2)C(=O)/C(=C/c2ccc([N+](=O)[O-])cc2)C1 [b-AP15] | 83 ± 3 | 150 ± 14 | 160 ± 3 | 268 ± 12 | induced thermostabilization | 
3 | CCC[C@H](NC(=O)/C(C#N)=C/c1cccc(Br)n1)c1ccccc1 [WP1130, reference compound] |  |  |  |  |  | induced thermostabilization
